Source: ChEMBL document CHEMBL1151599, “Probing the importance of the second chloroethyl arm of a benzoic acid mustard derivative of an imidazole-containing analogue of distamycin” (Bioorg Med Chem Lett, 1994)

Experiments:
[1] = tested on: Nucleic Acid; experiment: Apparent DNA binding constant to Poly (dA-dT) was determined using an ethidium displacement assay; type: nucleic-acid assay
[2] = tested on: Nucleic Acid; experiment: Apparent DNA binding constant to Poly (dG-dC) was determined using an ethidium displacement assay; type: nucleic-acid assay
[3] = tested on: Nucleic Acid; experiment: Apparent DNA binding constant to T4 DNA was determined using an ethidium displacement assay; type: nucleic-acid assay
[4] = tested on: Nucleic Acid; experiment: Apparent DNA binding constant to calf thymus DNA was determined using an ethidium displacement assay; type: nucleic-acid assay; settings: Bos taurus
[5] = tested on: K562; experiment: Cytotoxicity against the growth of chronic human myeloid leukemia K562 cells in culture following 1 hour exposure of compound using MTT assay; type: functional, cell-based; settings: K562, 1 h

Structure (SMILES)	K app [1]	K app [2]	K app [3]	K app [4]	IC50 [5]
CN(C)CCNC(=O)c1nc(NC(=O)c2nc(NC(=O)c3nc(NC(=O)c4ccc(N(CCCl)CCCl)cc4)cn3C)cn2C)cn1C	550000 M⁻¹	500000 M⁻¹	170000 M⁻¹	590000 M⁻¹	–
CN(C)CCNC(=O)c1nc(NC(=O)c2nc(NC(=O)c3nc(NC(=O)c4ccc(NCCCl)cc4)cn3C)cn2C)cn1C	550000 M⁻¹	900000 M⁻¹	3.89e+06 M⁻¹	2.27e+06 M⁻¹	> 100 µM
